The values below come from publication PMC10699557, “A recombinant approach for stapled peptide discovery yields inhibitors of the RAD51 recombinase” (Chemical Science, 2023).

The target of experiment [1] is monomeric version of RAD51 (HumRadA22) (Pyrococcus furiosus, UniProt O74036). Description: Fluorescence polarisation (FP) competition assay: displacement of fluorescein-labelled BRC4 repeat. The format is binding, archaeal RadA mutant with human Rad51 surface residues. The following applies: read-out: FP competition KD, nM, Stapled; stapled product (linker DVT or DVP as in Table 1); 100 nM HumRadA22, 10 nM BRC4-fluorescein; 20 mM CHES pH 9.5, 150 mM NaCl, 0.1% BSA, 0.1% Tween-20; KD calculated from IC50; single titration, three technical replicates per point. From the text:
We prepared all stapled peptides from small-scale bacterial cultures as GB1/C-His8 fusions and cyclised them with the DVT linker. For peptides SP10, SP11, SP12 and SP15, correct stapling was confirmed by MS, showing a similar composition to SP2 (Fig. S15–S18 ^†). Thus, we confirm that the pseudo-dilution approach is robust in yielding almost exclusively the cyclised product, irrespective of whether a helical or non-helical motif is being constrained. To examine the effect of introducing a covalent staple on affinity, a mock reaction was done in parallel for each peptide by splitting the IMAC elution into two halves and adding DMSO to the mock control instead of the linker. TCEP (500 μM) was included in the mock reaction to maintain the peptide in linear form by preventing disulfide formation. The peptides were tested in a fluorescence polarisation (FP) assay monitoring the displacement of a fluorescently-labelled BRC4 repeat from a monomeric version of RAD51 (HumRadA22), as reported previously.[25] […]
Fluorescence polarisation competition assay
FP competition assay was a modified version of a protocol described previously. Fluorescein-labelled HsBRC4 probe for this assay was kindly provided by Dr Laurens Lindenburg (Hollfelder group, Department of Biochemistry, University of Cambridge). Black 384-well flat-bottom microplates (Corning, 3821) were used with a 40 μl final reaction volume in all measurements. Following buffer conditions were used: 20 mM CHES pH 9.5, 150 mM NaCl, 0.1% BSA, 0.1% Tween-20. Each reaction contained 100 nM HumRadA22 and 10 nM BRC4-fluorescein. Two-fold serial dilutions of stapled peptides were added to the reactions. A free probe control reaction containing only 10 nM BRC4-fluorescein was used to calibrate gain and focal height. FP measurements were performed on Pherastar FX or Clariostar Plus (BMG Labtech) plate readers equipped with an FP 485-520-520 optic modules. Binding curves were fitted using the four-parameter logistic model with a variable Hill slope using Prism software (Graphpad). Regression fitting was performed using the least squares optimisation algorithm.
KD values were estimated from the fitted IC 50 parameters using a previously reported

For another experiment, the target named is HumRadA22 (Pyrococcus furiosus, UniProt O74036). Description: Isothermal titration calorimetry (ITC) of peptide binding. Set-up: species or system archaeal RadA mutant with human Rad51 surface residues. The note with it: read-out: ITC KD; free peptides; 20 mM CHES pH 9.5, 150 mM NaCl, 0.1% Tween-20; 25°C; single-site binding model. The method, then: We then evaluated the binding of free peptides to HumRadA22 using FP competition assay and isothermal titration calorimetry (Table 1 and Fig. 3B and C). […] All three peptides SP2, SP24 and SP30 bound with similar low-nanomolar affinities in ITC, and the binding appears to be slightly weaker relative to the linear BRC8-2 template (Fig. 3C).
(§1) Isothermal titration calorimetry
(§2) Peptides were resuspended in MilliQ water to 10 times the desired final concentration.
This was then diluted 10x with the ITC buffer to obtain the final titrant solution (20 mM CHES pH 9.5, 150 mM NaCl, 0.1% Tween-20). HumRadA22 was buffer-exchanged on a NAP-5 desalting column (Cytiva) into ITC buffer and protein concentration was adjusted to 10:9 of the desired final value. […]
(§3) Dried peptides were dissolved in MilliQ water to 0.3 mg/ml, and then two-fold diluted in 20 mM sodium phosphate, pH 7.4, giving a final solution of 0.15 mg/ml peptide in 10 mM sodium phosphate. CD spectra of selected peptides were recorded on an AVIV 410 circular dichroism spectropolarimeter using a 1 mm path length quartz cuvette. […]
(§4) The ability of linear and stapled BRC repeat peptides to dissociate RAD51-ssDNA nucleofilament was evaluated using an electrophoretic mobility shift assay (EMSA). […]
In general terms: In ITC the heat of successive injections is recorded.

The subject of experiment [2] is RAD51:dT60 nucleoprotein filament (full-length human RAD51). Description: Electrophoretic mobility shift assay (EMSA) of nucleoprotein filament disruption. The format is biochemical. The following applies: 5 μM full-length human RAD51, 100 nM FAM-dT60, varying peptide concentrations; 50 mM HEPES pH 7.4, 1 mM ATP. The method, then:
We evaluated the effect of stapled peptides SP2, SP24 and SP30 on the nucleoprotein filament using electrophoretic mobility shift assay (EMSA, Fig. 3D). A fluorescently labelled dT60 oligonucleotide was incubated with full-length RAD51, after which the peptides were added at different concentrations before separating the products on a polyacrylamide gel.
as §1, §2
This was then diluted 10x with the ITC buffer to obtain the final titrant solution (20 mM CHES pH 9.5, 150 mM NaCl, 0.1% Tween-20). HumRadA22 was buffer-exchanged on a NAP-5 desalting column (Cytiva) into ITC buffer and protein concentration was adjusted to 10:9 of the desired final value. One ninth volume of MilliQ water was added to the solution to bring the protein concentration to the desired final value, while maintaining identical buffer:MilliQ volume proportions in both the syringe and the cell. ITC was carried out using a Microcal ITC200 or Malvern PEAQ ITC instruments at 25°C with a 5.00 μCal reference power DP value, stirring speed of 500-750 rpm, 2 sec filter period. Injection spacing, speed and volume, cell/syringe concentrations as well as the number of injections were adjusted for each peptide and its binding properties. ITC data were fitted using a single-site binding model using the Microcal ITC data analysis program in the Origin 7.0 package. Data points affected by baseline spikes were omitted from the analysis.
Circular dichroism spectroscopy
as §3, §4
A general note: Mobility shift assays separate free from complexed probe on a gel.

Numbered stars: 1 amine (or outer) side, 2 acyl side, 3 side chain; on linkers, the order of the positions; unused ones are H or OH. Bridge positions count the residues as written; N and C are the ends. Peptide text beside a SMILES is read from it. X1 = Nc1nc(CC[*:1])cc(CC[*:2])n1

The Kd is the concentration at which binding is half-saturated. Regarding `CC(C)C[C@@H]1NC(=O)[C@H](C)NC(=O)[C@H](CCC(N)=O)NC(=O)[C@@H](NC(=O)[C@H](CO)NC(=O)[C@@H](NC(=O)[C@H](CC(N)=O)NC(=O)[C@H](CC(C)C)NC(=O)[C@H](CCCCN)NC(=O)[C@H](CCCCN)NC(=O)CNC(=O)[C@H](CO)NC(=O)[C@H](C)NC(=O)[C@@H](NC(=O)[C@H](CO)NC(=O)[C@H](Cc2ccccc2)NC(=O)CNC(=O)[C@H](CO)NC(=O)CN)[C@@H](C)O)C(C)C)CSCCc2cc(nc(N)n2)CCSC[C@@H](C(=O)N[C@@H](CCCCN)C(=O)N[C@@H](CC(C)C)C(=O)N[C@@H](Cc2ccccc2)C(=O)N[C@@H](CO)C(=O)NCC(=O)O)NC(=O)[C@H](C)NC(=O)[C@H](CCCCN)NC(=O)[C@H](CCC(N)=O)NC1=O` [SP24] (H-GSGFSTASGKKLNVSCQALQKACKLFSG-OH; linker 16-23 via X1), the values for the Kd (in experiment [1]; on HumRadA22) were 13 nM and 21 nM, respectively. For the same molecule, the “Depolymerisation of RAD51 from single-stranded DNA (EMSA)” value in experiment [2] is given as “depolymerise RAD51 from single-stranded DNA to similar extent”.
